The assay concerns the target Sigma non-opioid intracellular receptor 1 (Cavia porcellus, UniProt Q60492). The experiment in a line: Binding Assay. The text has this: Binding assay using sigma receptors.

Values joined by “and” are separate entries in the source; they are usually repeats but may differ in a detail not shown here. Equal entries are not always repeated.

Chain of Sigma non-opioid intracellular receptor 1 (Q60492 whole entry): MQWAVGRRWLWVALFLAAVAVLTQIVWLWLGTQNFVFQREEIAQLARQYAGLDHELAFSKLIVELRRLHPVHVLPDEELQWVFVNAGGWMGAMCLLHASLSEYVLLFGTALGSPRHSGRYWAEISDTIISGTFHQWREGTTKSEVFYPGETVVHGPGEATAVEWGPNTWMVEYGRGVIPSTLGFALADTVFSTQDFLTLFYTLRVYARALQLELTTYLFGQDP

Take `C=C(CC)c1ccc2c(c1)sc(=O)n2CCCCN1CCCCC1` [6-(but-1-en-2-yl)-3-[4-(piperidin-1-yl)butyl]-2,3-dihydro-1,3-benzothiazol-2-one, 12]: the Ki was 0.0029 µM and 0.013 µM. Consider `CCCc1ccc2c(c1)sc(=O)n2CCN1C[C@]2(C)CCC[C@]2(C)C1` [3-{2-[(3aR,6aS)-3a,6a-dimethyl-octahydrocyclopenta[c]pyrrol-2-yl]ethyl}-6-propyl-2,3-dihydro-1,3-benzothiazol-2-one, 13], for which the Ki was greater than 1 µM.

The term Ki denotes the dissociation constant of the complex between target and ligand, obtained from inhibition or displacement. Lower therefore signals a stronger hold on the target.

These data come from BindingDB's records for doi:10.1007/s00044-005-0131-1 (Universite De Lille, 2005).
